Reference: US7420056B2, “Substituted bicyclic imidazo-3-ylamine compounds” (Gruenenthal GmbH, priority 2004, dated 2008)
Where a name gives a salt, the structure may show the parent alone.

Biological target: mGluR5 receptor (Sus scrofa, UniProt I3LUI7)
Assay: Affinity for the mGluR5 receptor: inhibition of 3[H]-MPEP binding in pig brain homogenate
Details: 10 μM compound, 5 nM 3[H]-MPEP, read-out: mGluR5 receptor inhibition of ^3[H]-MPEP binding [10 μM] in % at a concentration of the example compounds of 10 μM
How it was run: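 Test compounds were screened at 10 μM for displacement of 5 nM [3H]-MPEP from pig brain homogenate (450 μg protein, pH 8.0 Hepes buffer) over 60 min at room temperature. After filtration, scintillation counting gave the read-out. 10 μM unlabelled MPEP set nonspecific binding.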

mGluR5 receptor, sequence (I3LUI7 19-1212): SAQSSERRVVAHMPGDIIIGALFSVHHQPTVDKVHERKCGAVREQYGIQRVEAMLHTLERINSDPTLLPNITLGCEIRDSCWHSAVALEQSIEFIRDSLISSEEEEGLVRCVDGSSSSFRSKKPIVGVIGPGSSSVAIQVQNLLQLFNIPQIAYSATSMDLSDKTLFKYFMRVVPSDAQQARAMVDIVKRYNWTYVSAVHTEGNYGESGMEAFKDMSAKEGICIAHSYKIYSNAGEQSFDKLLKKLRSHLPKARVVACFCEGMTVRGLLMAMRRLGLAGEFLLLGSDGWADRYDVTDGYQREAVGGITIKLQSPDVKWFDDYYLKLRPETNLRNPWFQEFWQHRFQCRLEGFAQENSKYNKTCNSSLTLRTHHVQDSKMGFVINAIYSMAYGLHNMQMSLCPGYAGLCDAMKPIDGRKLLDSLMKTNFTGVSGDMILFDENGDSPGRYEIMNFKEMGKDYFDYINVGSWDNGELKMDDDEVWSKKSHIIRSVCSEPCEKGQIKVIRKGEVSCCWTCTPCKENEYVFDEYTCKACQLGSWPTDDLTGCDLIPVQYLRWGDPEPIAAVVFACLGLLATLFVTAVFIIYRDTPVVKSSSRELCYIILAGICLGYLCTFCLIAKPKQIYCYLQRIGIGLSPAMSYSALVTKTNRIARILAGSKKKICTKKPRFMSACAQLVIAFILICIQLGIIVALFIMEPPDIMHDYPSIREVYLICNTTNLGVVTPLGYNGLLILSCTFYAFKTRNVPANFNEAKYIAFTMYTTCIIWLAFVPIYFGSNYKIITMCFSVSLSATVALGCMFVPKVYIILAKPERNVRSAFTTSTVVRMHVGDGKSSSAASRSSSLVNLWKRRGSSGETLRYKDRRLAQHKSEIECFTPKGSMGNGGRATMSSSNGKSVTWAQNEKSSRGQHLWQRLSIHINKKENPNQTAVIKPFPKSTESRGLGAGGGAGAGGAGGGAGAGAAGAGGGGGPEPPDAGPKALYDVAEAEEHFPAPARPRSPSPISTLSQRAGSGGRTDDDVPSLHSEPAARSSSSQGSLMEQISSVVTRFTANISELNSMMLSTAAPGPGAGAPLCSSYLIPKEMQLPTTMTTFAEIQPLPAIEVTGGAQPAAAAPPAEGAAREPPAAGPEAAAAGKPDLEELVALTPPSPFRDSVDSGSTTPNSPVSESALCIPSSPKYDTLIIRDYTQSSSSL

Structure (SMILES) | inhibition at 10 µM [%]
CC(C)c1ccn2c(NC(C)(C)C)c(-c3cccc(C#Cc4ccccn4)c3)nc2c1 [Example 306, N-tert-butyl-7-isopropyl-2-(3-(pyridin-2-ylethynyl)phenyl)imidazo[1,2-a]pyridin-3-amine] | 76
CC(C)c1ccn2c(NCc3cccc(C(F)(F)F)c3)c(-c3ccc(C#Cc4ccccc4)s3)nc2c1 [Example 54, [7-isopropyl-2-(5-phenylethynyl-thiophen-2-yl)-imidazo[1,2-a]pyridin-3-yl]-(3-trifluoromethyl-benzyl)-amine] | 69
CCCCC(C)(C)Nc1c(-c2cc(C#Cc3ccccc3)cs2)nc2cnccn12 [Example 200, N-(2-methylhexan-2-yl)-2-(4-(phenylethynyl)thiophen-2-yl)imidazo[1,2-a]pyrazin-3-amine] | 62
CC(C)(C)Nc1c(-c2ccc(C#Cc3ccccc3)nc2)nc2ccccn12 [Example 282, N-tert-butyl-2-(6-(phenylethynyl)pyridin-3-yl)imidazo[1,2-a]pyridin-3-amine] | 72
C(#Cc1csc(-c2nc3cc(-c4ccccc4)ccn3c2NCCc2ccccc2)c1)c1ccccc1 [Example 229, N-phenethyl-7-phenyl-2-(4-(phenylethynyl)thiophen-2-yl)imidazo[1,2-a]pyridin-3-amine] | 30
Cc1cccc(C)c1Nc1c(-c2cc(C#Cc3ccccc3)cs2)nc2c(C)cc(Br)cn12 [Example 237, 6-bromo-N-(2,6-dimethylphenyl)-8-methyl-2-(4-(phenylethynyl)thiophen-2-yl)imidazo[1,2-a]pyridin-3-amine] | 36
Cc1cccc(C#Cc2cccc(-c3nc4ccccn4c3NC3CCCCC3)c2)n1 [Example 288, N-cyclohexyl-2-(3-((6-methylpyridin-2-yl)ethynyl)phenyl)imidazo[1,2-a]pyridin-3-amine] | 89
COc1cccc(CCNc2c(-c3cc(C#Cc4ccccc4)cs3)nc3nc(C)cc(C)n23)c1 [Example 196, N-(3-methoxyphenethyl)-5,7-dimethyl-2-(4-(phenylethynyl)thiophen-2-yl)imidazo[1,2-a]pyrimidin-3-amine] | 68
Clc1ccccc1CNc1c(-c2ccc(C#Cc3ccccc3)s2)nc2ccccn12 [Example 39, (2-chloro-benzyl)-[2-(5-phenylethynyl-thiophen-2-yl)-imidazo[1,2-a]pyridin-3-yl]-amine] | 72
C(#Cc1ccc(-c2nc3ncccn3c2NC2CCCC2)o1)c1ccccn1 [Example 257, N-cyclopentyl-2-(5-(pyridin-2-ylethynyl)furan-2-yl)imidazo[1,2-a]pyrimidin-3-amine] | 77
Cc1cc(C)n2c(NC3CCCC3)c(-c3ccc(C#Cc4ccccn4)o3)nc2n1 [Example 294, N-cyclopentyl-5,7-dimethyl-2-(5-(pyridin-2-ylethynyl)furan-2-yl)imidazo[1,2-a]pyrimidin-3-amine] | 79
Cc1cc(C)n2c(NC3CCCCC3)c(-c3cccc(C#Cc4ccccn4)c3)nc2n1 [Example 292, N-cyclohexyl-5,7-dimethyl-2-(3-(pyridin-2-ylethynyl)phenyl)imidazo[1,2-a]pyrimidin-3-amine] | 88
CC(C)(C)CC(C)(C)Nc1c(-c2cccc(C#Cc3ccccn3)c2)nc2c(Cl)cc(C(F)(F)F)cn12 [Example 103, 8-chloro-2-(3-(pyridin-2-ylethynyl)phenyl)-6-(trifluoromethyl)-N-(2,4,4-trimethylpentan-2-yl)imidazo[1,2-a]pyridin-3-amine] | 66
COc1ccc(CNc2c(-c3ccc(C#Cc4ccccc4)s3)nc3ccc(C)cn23)cc1 [Example 11, (4-methoxy-benzyl)-[6-methyl-2-(5-phenylethynyl-thiophen-2-yl)-imidazo[1,2-a]pyridin-3-yl]-amine] | 82
Cc1cc(C)n2c(NC(C)c3ccccc3)c(-c3ccc(C#Cc4ccccc4)s3)nc2c1 (stereo not shown) [Example 29, [5,7-dimethyl-2-(5-phenylethynyl-thiophen-2-yl)-imidazo[1,2-a]pyridin-3-yl]-(1-phenyl-ethyl)-amine] | 87
Cc1cccc(C#Cc2cccc(-c3nc4cnccn4c3Nc3ccc(F)cc3)c2)n1 [Example 252, N-(4-fluorophenyl)-2-(3-((6-methylpyridin-2-yl)ethynyl)phenyl)imidazo[1,2-a]pyrazin-3-amine] | 86
COc1ccc(CNc2c(-c3ccc(C#Cc4ccccc4)s3)nc3nc(C)ccn23)cc1 [Example 34, (4-methoxy-benzyl)-[7-methyl-2-(5-phenylethynyl-thiophen-2-yl)-imidazo[1,2-a]pyrimidin-3-yl]-amine] | 98
COc1ccc(CNc2c(-c3ccc(C#Cc4ccccc4)s3)nc3cc(C)ccn23)cc1 [Example 12, (4-methoxy-benzyl)-[7-methyl-2-(5-phenylethynyl-thiophen-2-yl)-imidazo[1,2-a]pyridin-3-yl]-amine] | 96

Same assay, conditions: 3[H]-MPEP binding

Structure (SMILES) | IC50 [nM]
Cc1ccc(C#Cc2ccc(-c3nc4cnccn4c3NC(C)(C)C)s2)nc1 [Example 131, N-tert-butyl-2-(5-((5-methylpyridin-2-yl)ethynyl)thiophen-2-yl)imidazo[1,2-a]pyrazin-3-amine hydrochloride] | 140
COc1cccnc1C#Cc1ccc(-c2nc3ccccn3c2NC(C)(C)C)s1 [Example 342, N-tert-butyl-2-(5-((3-methoxypyridin-2-yl)ethynyl)thiophen-2-yl)imidazo[1,2-a]pyridin-3-amine] | 1360
CC(C)(C)Nc1c(-c2ccc(C#Cc3ccccn3)s2)nc2c(Cl)nccn12 [Example 167, N-tert-butyl-8-chloro-2-(5-(pyridin-2-ylethynyl)thiophen-2-yl)imidazo[1,2-a]pyrazin-3-amine] | 12
CC(C)(C)Nc1c(-c2ccc(C#Cc3cscn3)s2)nc2cnccn12 [Example 152, N-tert-butyl-2-(5-(thiazol-4-ylethynyl)thiophen-2-yl)imidazo[1,2-a]pyrazin-3-amine hydrochloride] | 23
CN(c1c(-c2ccc(C#Cc3ccccc3)s2)nc2cnccn12)C(C)(C)CC(C)(C)C [Example 98, N-methyl-2-(5-(phenylethynyl)thiophen-2-yl)-N-(2,4,4-trimethylpentan-2-yl)imidazo[1,2-a]pyrazin-3-amine hydrochloride] | 250
CC(C)(C)CC(C)(C)Nc1c(-c2ccc(C#Cc3cccnc3)s2)nc2cnccn12 [Example 60, [2-(5-Pyridin-3-ylethynyl-thiophen-2-yl)-imidazo[1,2-a]pyrazin-3-yl]-(1,1,3,3-tetramethyl-butyl)-amine] | 1200
Cc1ccccc1C#Cc1ccc(-c2nc3cnccn3c2NC(C)(C)C)s1 [Example 162, N-tert-butyl-2-(5-(o-tolylethynyl)thiophen-2-yl)imidazo[1,2-a]pyrazin-3-amine hydrochloride] | 4240
CC(C)(C)Nc1c(-c2ccc(C#Cc3ncccn3)s2)nc2ccccn12 [Example 325, tert-butyl-[2-(5-pyrimidin-2-ylethynyl-thiophen-2-yl)-imidazo[1,2-a]pyridin-3-yl]-amine hydrochloride] | 13
CC(C)(C)Nc1c(-c2ccc(C#Cc3ccc(F)cc3)s2)nc2cnccn12 [Example 100, N-tert-butyl-2-(5-((4-fluorophenyl)ethynyl)thiophen-2-yl)imidazo[1,2-a]pyrazin-3-amine hydrochloride] | 340
CC(C)(C)CC(C)(C)Nc1c(-c2ccc(C#Cc3ccccn3)s2)nc2ccccn12 [Example 324, [2-(5-pyridin-2-ylethynyl-thiophen-2-yl)-imidazo[1,2-a]pyridin-3-yl]-(1,1,3,3-tetramethyl-butyl)-amine] | 59
CC(C)(C)Nc1c(-c2cccc(C#Cc3ccccn3)c2)nc2cnccn12 [Example 111, N-tert-butyl-2-(3-(pyridin-2-ylethynyl)phenyl)imidazo[1,2-a]pyrazin-3-amine] | 1370
CC(C)(C)Nc1c(-c2ccc(C#Cc3ccccc3N)s2)nc2cnccn12 [Example 124, 2-(5-((2-aminophenyl)ethynyl)thiophen-2-yl)-N-tert-butylimidazo[1,2-a]pyrazin-3-amine hydrochloride] | 170
CNc1c(-c2ccc(C#Cc3ccccn3)s2)nc2cnccn12 [Example 322, N-methyl-2-(5-(pyridin-2-ylethynyl)thiophen-2-yl)imidazo[1,2-a]pyrazin-3-amine] | 120
Cc1cccnc1C#Cc1ccc(-c2nc3ccccn3c2NC(C)(C)C)s1 [Example 351, N-tert-butyl-2-(5-((3-methylpyridin-2-yl)ethynyl)thiophen-2-yl)imidazo[1,2-a]pyridin-3-amine hydrochloride] | 230
CC(C)(C)Nc1c(-c2ccc(C#Cc3ccsc3)s2)nc2cnccn12 [Example 156, N-tert-butyl-2-(5-(thiophen-3-ylethynyl)thiophen-2-yl)imidazo[1,2-a]pyrazin-3-amine hydrochloride] | 27
CC(C)(C)Nc1c(-c2ccc(C#Cc3cccc(N)c3)s2)nc2cnccn12 [Example 123, 2-(5-((3-aminophenyl)ethynyl)thiophen-2-yl)-N-tert-butylimidazo[1,2-a]pyrazin-3-amine hydrochloride] | 14
COc1ccc(C#Cc2ccc(-c3nc4cnccn4c3NC(C)(C)C)s2)cc1 [Example 114, N-tert-butyl-2-(5-((4-methoxyphenyl)ethynyl)thiophen-2-yl)imidazo[1,2-a]pyrazin-3-amine hydrochloride] | 2110
CC(C)(C)Nc1c(-c2ccc(C#Cc3cccnc3)s2)nc2cnccn12 [Example 82, tert-butyl-[2-(5-pyridin-3-ylethynyl-thiophen-2-yl)-imidazo[1,2-a]pyrazin-3-yl]-amine] | 200
CC(C)(C)Nc1c(-c2ccc(C#Cc3nccs3)s2)nc2ccccn12 [Example 332, tert-butyl-[2-(5-thiazol-2-ylethynyl-thiophen-2-yl)-imidazo[1,2-a]pyridin-3-yl]-amine hydrochloride] | 14
